target: T1, human CRTH2 (Homo sapiens, UniProt Q9Y5Y4); experiment: Human CRTH2 Receptor Binding Assay; conditions: whole cell binding, CHO-K1 cells expressing human CRTH2, 20 nM [3H]ramatroban as competing radioligand
T1 construct: expressed in transfected cells
T1 sequence (Q9Y5Y4 1-395): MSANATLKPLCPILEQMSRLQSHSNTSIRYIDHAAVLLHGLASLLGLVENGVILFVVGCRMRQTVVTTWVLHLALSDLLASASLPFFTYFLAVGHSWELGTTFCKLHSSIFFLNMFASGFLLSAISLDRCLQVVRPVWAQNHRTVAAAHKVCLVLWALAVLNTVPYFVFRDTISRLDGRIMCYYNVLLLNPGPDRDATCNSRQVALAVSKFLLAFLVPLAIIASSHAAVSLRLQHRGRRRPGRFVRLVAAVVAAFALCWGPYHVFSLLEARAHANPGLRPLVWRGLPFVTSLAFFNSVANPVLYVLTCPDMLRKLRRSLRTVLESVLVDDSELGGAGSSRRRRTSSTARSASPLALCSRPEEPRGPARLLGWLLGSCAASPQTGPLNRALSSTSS
Description: A whole cell receptor binding assay using [^3H]ramatroban as the competing radioactive ligand was employed to evaluate the compound binding activity to human CRTH2. The radioactive ligand [^3H]ramatroban was synthesized according to Sugimoto et. al. (Eur. J. Pharmacol. 524, 30-37, 2005) to a specific activity of 42 Ci/mmol.
A cell line stably expressing human CRTH2 was established by transfecting CHO-K1 cells with two mammalian expression vectors that harbored human CRTH2 and G-alpha16 cDNAs, respectively, using FuGene® 6 transfection reagent (from Roche). Stable clones expressing CRTH2 were selected by staining each clone with BM16 (BD Pharmingen™ from BD Biosciences, a division of Becton, Dickinson and Company), which is a rat monoclonal antibody to human CRTH2. The cells were maintained as monolayer cultures in Ham's F-12 medium containing 10% fetal bovine serum, 100 units/mL penicillin, 100 μg/mL streptomycin, 2 mM glutamine, 0.5 mg/mL G418 (geneticin) for CRTH2, and 0.2 mg/mL hygromycin-B (for G-alpha 16). For whole cell receptor binding assay, the monolayer cells were rinsed once with PBS (phosphate buffered saline), dissociated using ethylenediaminetetraacetate (Versene™ EDTA from the Lonza Inc.), and suspended in PBS containing 10 mM MgCl2 and 0.06% BSA (bovine serum albumin) at 1.5×10^6 cells/mL.
The binding reactions (0.2 mL) were performed in 96-well plates at room temperature in PBS containing 1.5×10^5 cells, 10 mM MgCl2, 0.06% BSA, 20 nM [^3H]ramatroban, and test compound at various concentrations. After 1 hour of binding reactions, the cells were harvested on GF™/B filter microplates (microtiter plates with embedded glass fiber from PerkinElmer, Inc.) and washed 5 times with PBS using a Filtermate™ Harvester (a cell harvester that harvests and washes cells from microplates from PerkinElmer, Inc.). The radioactivities bound to the cells were determined using a microplate scintillation counter (TopCount® NXT, from PerkinElmer, Inc.) after adding 50 μL of Microscint™ 20 scintillation fluid (from PerkinElmer, Inc.) to each well of the filter plates. The radioactivity from non-specific binding was determined by replacing compound with 10 μM of 15(R)-15-methyl PGD2 (from Cayman Chemical Company) in the reaction mixtures. The radioactivity bound to the cells in the absence of compound (total binding) was determined by replacing compound with 0.25% of DMSO (dimethyl sulfoxide) in the reaction mixture. Specific binding data were obtained by subtracting the radioactivity of non-specific binding from each binding data.
The IC50 value is defined as the concentration of the tested compound that is required for 50% inhibition of total specific binding. In order to calculate the IC50 value, the percent inhibition data were determined for 7 concentrations for each compound. The percent inhibition for a compound at each concentration was calculated according to the following formula, [1-(specific binding in the presence of compound)/(total specific binding)]×100. The IC50 value was then obtained by fitting the percent inhibition data to a sigmoidal dose-response (4 parameter logistic) model in the XLfit® software Excel add-in program [from ID Business Solutions Ltd., model 205, where F(x)=(A+(B−A)/(1+((C/x)^D)))].

Row | SMILES | IC50 [nM]
1 | Cc1ccc(-c2ccc(S(=O)(=O)N[C@@H]3CCCc4c(OCC(=O)O)cccc43)cc2C)cc1 [Example 3-34, [(R)-5-(2,4′-Dimethyl-biphenyl-4-sulfonylamino)-5,6,7,8-tetrahydro-naphthalen-1-yloxy]-acetic acid] | 157
2 | CN([C@@H]1CCCc2c(OCC(=O)O)cccc21)S(=O)(=O)c1cc(C(F)(F)F)cc(S(=O)(=O)c2ccc(Cl)cc2)c1 [Example 8-1, ((R)-5-{[3-(4-Chloro-benzenesulfonyl)-5-trifluoromethyl-benzenesulfonyl]-methyl-amino}-5,6,7,8-tetrahydro-naphthalen-1-yloxy)-acetic acid] | 2.9
3 | O=C(O)COc1cccc2c1CCCC2NS(=O)(=O)c1ccc(-c2cc(F)ccn2)cc1 (stereo not drawn) [Example 3-1, {5-[4-(4-Fluoro-pyridin-2-yl)-benzenesulfonylamino]-5,6,7,8-tetrahydro-naphthalen-1-yloxy}-acetic acid] | 55.1
4 | CN(C)C(=O)c1ccc(-c2ccc(S(=O)(=O)N[C@@H]3CCCc4c(OCC(=O)O)cccc43)cc2)cc1 [Example 3-30, [(R)-5-(4′-Dimethylcarbamoyl-biphenyl-4-sulfonylamino)-5,6,7,8-tetrahydro-naphthalen-1-yloxy]-acetic acid] | 67.1
5 | O=C(O)COc1cccc2c1CCCC2NS(=O)(=O)c1cccc(Oc2ccccc2)c1 (stereo not drawn) [Example 1-3, [5-(3-Phenoxy-benzenesulfonylamino)-5,6,7,8-tetrahydro-naphthalen-1-yloxy]-acetic acid] | 200
6 | O=C(O)COc1cccc2c1CCCC2NS(=O)(=O)c1ccc(-c2ccc(OC(F)(F)F)cc2)cn1 (stereo not drawn) [Example 3-62, {5-[5-(4-Trifluoromethoxy-phenyl)-pyridine-2-sulfonylamino]-5,6,7,8-tetrahydro-naphthalen-1-yloxy}-acetic acid] | 70.7
7 | O=C(O)COc1cccc2c1CCCC2NS(=O)(=O)c1ccc(Oc2ccccc2)nc1 (stereo not drawn) [Example 1-6, [5-(6-Phenoxy-pyridine-3-sulfonylamino)-5,6,7,8-tetrahydro-naphthalen-1-yloxy]-acetic acid] | 188
8 | CS(=O)(=O)c1cncc(-c2ccc(S(=O)(=O)NC3CCCc4c(OCC(=O)O)cccc43)cc2)c1 (stereo not drawn) [Example 3-16, {5-[4-(5-Methanesulfonyl-pyridin-3-yl)-benzenesulfonylamino]-5,6,7,8-tetrahydro-naphthalen-1-yloxy}-acetic acid] | 20.3
9 | Cc1cc(C)cc(Oc2ncc(S(=O)(=O)NC3CCCc4c(OCC(=O)O)cccc43)cc2Br)c1 (stereo not drawn) [Example 2-15, {5-[5-Bromo-6-(3,5-dimethyl-phenoxy)-pyridine-3-sulfonylamino]-5,6,7,8-tetrahydro-naphthalen-1-yloxy}-acetic acid] | 75.2
10 | N#Cc1cccc(Oc2ncc(S(=O)(=O)NC3CCCc4c(OCC(=O)O)cccc43)cc2Br)c1 (stereo not drawn) [Example 2-6, {5-[5-Bromo-6-(3-cyano-phenoxy)-pyridine-3-sulfonylamino]-5,6,7,8-tetrahydro-naphthalen-1-yloxy}-acetic acid] | 60.3
11 | O=C(O)COc1cccc2c1CCC[C@H]2NS(=O)(=O)c1ccc(-c2ccc(F)cc2)cc1 [Example 1-7, [(R)-5-(4′-Fluoro-biphenyl-4-sulfonylamino)-5,6,7,8-tetrahydro-naphthalen-1-yloxy]-acetic acid] | 52.6
12 | O=C(O)COc1cccc2c1CCC[C@H]2NS(=O)(=O)c1ccc(Oc2ccc(F)cc2)c(C(F)(F)F)c1 [Example 2-42, {(R)-5-[4-(4-Fluoro-phenoxy)-3-trifluoromethyl-benzenesulfonylamino]-5,6,7,8-tetrahydro-naphthalen-1-yloxy}-acetic acid] | 11.2
13 | Cc1cc(-c2ccc(S(=O)(=O)N[C@@H]3CCCc4c(OCC(=O)O)cccc43)cc2)cc(C(C)(C)C)c1 [Example 3-45, [(R)-5-(3′-tert-Butyl-5′-methyl-biphenyl-4-sulfonylamino)-5,6,7,8-tetrahydro-naphthalen-1-yloxy]-acetic acid] | 5.9
14 | Cc1ccc(-c2ccc(S(=O)(=O)N[C@@H]3CCCc4c(OCC(=O)O)cccc43)cc2)cc1 [Example 1-2, [(R)-5-(4′-Methyl-biphenyl-4-sulfonylamino)-5,6,7,8-tetrahydro-naphthalen-1-yloxy]-acetic acid] | 51.6
15 | O=C(O)COc1cccc2c1CCCC2NS(=O)(=O)c1ccc(-c2cccnc2F)cc1 (stereo not drawn) [Example 3-3, {5-[4-(2-Fluoro-pyridin-3-yl)-benzenesulfonylamino]-5,6,7,8-tetrahydro-naphthalen-1-yloxy}-acetic acid] | 203
16 | Cc1cc(-c2ccc(S(=O)(=O)N[C@@H]3CCCc4c(OCC(=O)O)cccc43)nc2)cc(C(C)(C)C)c1 [Example 3-48, {(R)-5-[5-(3-tert-Butyl-5-methyl-phenyl)-pyridine-2-sulfonylamino]-5,6,7,8-tetrahydro-naphthalen-1-yloxy}-acetic acid] | 4.8
17 | CN([C@@H]1CCCc2c(OCC(=O)O)cccc21)S(=O)(=O)c1ccc(Oc2ccc(Cl)cc2)c(Cl)c1 [Example 6-1, ((R)-5-{[3-Chloro-4-(4-chloro-phenoxy)-benzenesulfonyl]-methyl-amino}-5,6,7,8-tetrahydro-naphthalen-1-yloxy)-acetic acid] | 147
18 | O=C(O)COc1cccc2c1CCCC2NS(=O)(=O)c1cnc(Oc2ccc3c(c2)CCC3)c(Br)c1 (stereo not drawn) [Example 2-17, {5-[5-Bromo-6-(indan-5-yloxy)-pyridine-3-sulfonylamino]-5,6,7,8-tetrahydro-naphthalen-1-yloxy}-acetic acid] | 115
19 | Cc1cccc(-c2ccc(S(=O)(=O)NC3CCCc4c(OCC(=O)O)cccc43)cc2)n1 (stereo not drawn) [Example 3-9, {5-[4-(6-Methyl-pyridin-2-yl)-benzenesulfonylamino]-5,6,7,8-tetrahydro-naphthalen-1-yloxy}-acetic acid] | 74.9
20 | O=C(O)COc1cccc2c1CCCC2NS(=O)(=O)c1cnc(Oc2ccc(F)cc2Cl)c(Br)c1 (stereo not drawn) [Example 2-1, {5-[5-Bromo-6-(2-chloro-4-fluoro-phenoxy)-pyridine-3-sulfonylamino]-5,6,7,8-tetrahydro-naphthalen-1-yloxy}-acetic acid] | 76.4
21 | COc1ccc(-c2ccc(S(=O)(=O)N[C@@H]3CCCc4c(OCC(=O)O)cccc43)cc2)cc1 [Example 1-8, [(R)-5-(4′-Methoxy-biphenyl-4-sulfonylamino)-5,6,7,8-tetrahydro-naphthalen-1-yloxy]-acetic acid] | 65.9
22 | O=C(O)COc1cccc2c1CCC[C@H]2NS(=O)(=O)c1ccc(-c2ccc(O)cc2)cc1 [Example 3-23, [(R)-5-(4′-Hydroxy-biphenyl-4-sulfonylamino)-5,6,7,8-tetrahydro-naphthalen-1-yloxy]-acetic acid] | 124
23 | CC(C)c1cccc(Oc2ncc(S(=O)(=O)NC3CCCc4c(OCC(=O)O)cccc43)cc2Br)c1 (stereo not drawn) [Example 2-9, {5-[5-Bromo-6-(3-isopropyl-phenoxy)-pyridine-3-sulfonylamino]-5,6,7,8-tetrahydro-naphthalen-1-yloxy}-acetic acid] | 21.2
24 | O=C(O)COc1cccc2c1CCCC2NS(=O)(=O)c1cnc(Oc2ccc(CCO)cc2)c(Br)c1 (stereo not drawn) [Example 2-22, (5-{5-Bromo-6-[4-(2-hydroxy-ethyl)-phenoxy]-pyridine-3-sulfonylamino}-5,6,7,8-tetrahydro-naphthalen-1-yloxy)-acetic acid] | 31.7

— patent publication US8163781B2, “Bi-aryl aminotetralines” (Hoffman-La Roche Inc., priority 2008, dated 2012)
